According to the supplement of paper PMC10331698:
± gives the standard deviation of the averaged measurements.

Legend:
Experiment in all cases: level (log10 ratio to DMSO vehicle control); higher = higher biomarker level / cell amount than vehicle control
Octafluoroadipic acid = compound: O=C(O)C(F)(F)C(F)(F)C(F)(F)C(F)(F)C(=O)O [Octafluoroadipic acid] (in DMSO)
Protocol: (§1)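 BioMAP Diversity Plus panel of 12 human primary cell co-culture systems (3C, 4H, LPS, SAg, BT, BF4T, BE3C, CASM3C, HDF3CGF, KF3CT, MyoF, Mphg). Compounds were added 1 h before stimulation and left for 24 h (MyoF 48 h; BT 72 h for soluble read-outs or 6 d for IgG). Biomarkers were read by ELISA, cytotoxicity by SRB, PBMC viability and proliferation by Alamar Blue. Each well value was divided by the mean of 8 DMSO control wells on the same plate and log10 transformed; duplicate blinded samples were tested at 4 concentrations.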

[1] = compound: OCC(F)(F)OC(F)(F)C(F)(F)OC(F)(F)C(F)(F)OC(F)(F)CO [1H,1H,11H,11H-Perfluorotetraethylene glycol] (in DMSO)
Protocol: as §1

[2] = compound: O=C(O)C(F)(OC(F)(F)C(F)(F)C(F)(F)F)C(F)(F)F [Ammonium perfluoro-2-methyl-3-oxahexanoate] (in Water)
Protocol: as §1

[3] = compound: CCOC(=O)CC(=O)C(F)(F)C(F)(F)F [Ethyl pentafluoropropionyl acetate] (in DMSO)
Protocol: as §1

[4] = compound: O=S(=O)(O)C(F)(F)C(F)(F)OC(F)(F)C(F)(F)F [Perfluoro(2-ethoxyethane)sulfonic acid] (in DMSO)
Protocol: as §1

[5] = compound: OCC(F)(F)C(F)(F)C(F)(F)C(F)F [1H,1H,5H-Perfluoropentanol] (in DMSO)
Protocol: as §1

Perfluorononanoic acid = compound: O=C(O)C(F)(F)C(F)(F)C(F)(F)C(F)(F)C(F)(F)C(F)(F)C(F)(F)C(F)(F)F [Perfluorononanoic acid] (in DMSO)
Protocol: as §1

| Test System | level (log10) (Octafluoroadipic acid; 6700 nM) | level (log10) (Octafluoroadipic acid; 20000 nM) | level (log10) (Octafluoroadipic acid; 60000 nM) | level (log10) ([1]; 6700 nM) | level (log10) ([1]; 20000 nM) | level (log10) ([1]; 60000 nM) | level (log10) ([2]; 6700 nM) | level (log10) ([2]; 20000 nM) | level (log10) ([2]; 60000 nM) | level (log10) ([3]; 6700 nM) | level (log10) ([3]; 20000 nM) | level (log10) ([3]; 60000 nM) | level (log10) ([4]; 6700 nM) | level (log10) ([4]; 20000 nM) | level (log10) ([4]; 60000 nM) | level (log10) ([5]; 6700 nM) | level (log10) ([5]; 20000 nM) | level (log10) ([5]; 60000 nM) | level (log10) (Perfluorononanoic acid; 6700 nM) | level (log10) (Perfluorononanoic acid; 20000 nM) |
| --- | --- | --- | --- | --- | --- | --- | --- | --- | --- | --- | --- | --- | --- | --- | --- | --- | --- | --- | --- | --- |
| MyoF:Decorin | 0.0005 ± 0.011 | -0.0055 ± 0.019 | -0.001 ± 0.013 | -0.009 | -0.013 | 0.019 ± 0.017 | -0.048 ± 0.023 | -0.02 ± 0.0085 | -0.024 ± 0.013 | -0.0135 ± 0.026 | -0.0025 ± 0.016 | 0.023 ± 0.014 | -0.0085 ± 0.0092 | 0.001 ± 0.013 | 0.0355 ± 0.005 | 0 ± 0.089 | 0.029 ± 0.12 | 0.0455 ± 0.15 | 0.0125 ± 0.028 | 0.0545 ± 0.0035 |
| BE3C:PAI-I | -0.0025 ± 0.005 | 0.0015 ± 0.0035 | 0.0025 ± 0.0035 | 0.0145 ± 0.012 | -0.0035 ± 0.021 | -0.072 ± 0.018 | -0.0995 ± 0.057 | -0.092 ± 0.044 | -0.124 ± 0.012 | 0.008 ± 0.0014 | -0.006 ± 0.014 | 0.0045 ± 0.018 | -0.011 ± 0.023 | 0.0015 ± 0.021 | 0.032 ± 0.014 | -0.043 ± 0.021 | 0.023 ± 0.048 | 0.0495 ± 0.047 | -0.013 ± 0.042 | -0.101 ± 0.019 |
| lMphg:CD69 | 0.0095 ± 0.037 | 0.0035 ± 0.081 | -0.008 ± 0.054 | -0.0285 ± 0.023 | -0.0155 ± 0.016 | 0.0065 ± 0.06 | -0.0435 ± 0.011 | 0 ± 0.013 | -0.0185 ± 0.015 | -0.0405 ± 0.0064 | 0.0005 ± 0.064 | 0.0075 ± 0.12 | -0.043 ± 0.075 | 0.011 ± 0.0099 | -0.0415 ± 0.0078 | -0.039 ± 0.031 | 0.0325 ± 0.019 | 0.034 ± 0.028 | -0.0165 ± 0.069 | 0.0125 ± 0.032 |
| 3C:CD62E/E-Selectin | -0.029 ± 0.0071 | -0.004 ± 0.016 | -0.0205 ± 0.0078 | -0.0145 ± 0.029 | -0.008 ± 0.038 | -0.0375 ± 0.036 | 0.0025 ± 0.005 | 0.0105 ± 0.011 | 0.011 ± 0.011 | -0.0035 ± 0.013 | -0.007 ± 0.023 | 0.011 ± 0.0071 | 0.0125 ± 0.012 | 0 | 0.0125 ± 0.0064 | -0.018 ± 0.018 | -0.015 | 0.008 ± 0.0014 | -0.0195 ± 0.0078 | -0.013 ± 0.013 |
| KF3CT:SRB | -0.0065 ± 0.005 | 0.003 ± 0.013 | 0.001 ± 0.018 | -0.003 ± 0.014 | 0.003 ± 0.0071 | -0.012 ± 0.013 | -0.004 | -0.005 ± 0.0014 | -0.0015 ± 0.005 | -0.002 | 0.0005 ± 0.0035 | -0.004 ± 0.0014 | -0.0065 ± 0.00071 | -0.0035 ± 0.0035 | 0.007 ± 0.0099 | 0.003 ± 0.0028 | 0.0025 ± 0.0035 | 0.0025 ± 0.0035 | -0.011 ± 0.0057 | -0.0215 ± 0.0021 |
| CASM3C:CD141/Thrombomodulin | 0.0115 ± 0.0021 | 0.0105 ± 0.021 | 0.0065 ± 0.022 | -0.0135 ± 0.015 | -0.009 ± 0.0085 | 0.035 ± 0.0042 | 0.113 ± 0.0057 | 0.0435 ± 0.11 | 0.035 ± 0.038 | -0.005 ± 0.0071 | -0.0005 ± 0.00071 | -0.0115 ± 0.018 | 0.005 ± 0.011 | -0.015 ± 0.0071 | 0.023 ± 0.044 | 0.046 | 0.018 ± 0.017 | 0.032 ± 0.023 | 0.0145 ± 0.0092 | 0.0335 ± 0.016 |
| BE3C:tPA | -0.003 ± 0.0028 | 0.004 ± 0.0099 | 0.0015 ± 0.0064 | -0.0145 ± 0.035 | -0.0265 ± 0.044 | -0.008 ± 0.061 | -0.101 ± 0.047 | -0.0935 ± 0.021 | -0.0945 ± 0.021 | -0.019 ± 0.041 | -0.034 ± 0.038 | -0.028 ± 0.035 | -0.004 ± 0.034 | -0.053 ± 0.013 | 0.0595 ± 0.013 | -0.019 ± 0.0042 | -0.022 ± 0.017 | -0.0035 ± 0.011 | -0.012 ± 0.0042 | -0.172 ± 0.023 |
| CASM3C:CD106/VCAM-1 | -0.0055 ± 0.011 | -0.011 ± 0.013 | -0.019 | 0.025 ± 0.011 | 0.017 ± 0.011 | 0.032 ± 0.0085 | -0.0955 ± 0.061 | -0.0645 ± 0.005 | -0.083 ± 0.011 | -0.01 ± 0.0085 | -0.011 ± 0.0085 | -0.01 ± 0.023 | -0.0035 ± 0.023 | -0.0165 ± 0.026 | 0.001 ± 0.018 | 0.0335 ± 0.023 | 0.027 ± 0.065 | 0.0395 ± 0.013 | 0.013 ± 0.0042 | -0.0245 ± 0.1 |
| CASM3C:M-CSF | -0.039 ± 0.02 | -0.024 ± 0.042 | 0.0155 ± 0.1 | -0.0255 ± 0.026 | -0.035 ± 0.02 | -0.0345 ± 0.011 | -0.049 ± 0.016 | -0.0405 ± 0.0092 | -0.0405 ± 0.022 | -0.0145 ± 0.00071 | -0.0175 ± 0.0064 | -0.0025 ± 0.028 | -0.0075 ± 0.011 | 0 ± 0.031 | 0.0615 ± 0.057 | 0.025 ± 0.024 | -0.0195 ± 0.022 | 0.0045 ± 0.063 | 0.045 ± 0.0099 | 0.0435 ± 0.028 |
| HDF3CGF:CXCL9/MIG | 0.009 ± 0.0028 | 0.007 ± 0.018 | -0.0055 ± 0.015 | -0.105 ± 0.011 | -0.283 ± 0.03 | -0.525 ± 0.14 | -0.011 ± 0.028 | -0.02 ± 0.014 | -0.016 ± 0.064 | 0.001 ± 0.0042 | -0.013 ± 0.0085 | -0.0185 ± 0.005 | 0.004 ± 0.0057 | 0.002 ± 0.0042 | -0.0055 ± 0.005 | 0.0035 ± 0.0021 | 0.0025 ± 0.025 | -0.0105 ± 0.022 | -0.04 ± 0.016 | -0.074 ± 0.02 |
| MyoF:CXCL8/IL-8 | -0.0025 ± 0.00071 | 0.002 ± 0.041 | 0.0235 ± 0.046 | -0.0185 ± 0.011 | -0.0215 ± 0.00071 | -0.013 ± 0.018 | -0.0355 ± 0.032 | -0.0385 ± 0.011 | -0.045 ± 0.011 | -0.007 ± 0.018 | -0.0025 ± 0.021 | 0.0105 ± 0.029 | 0.0095 ± 0.037 | 0.0225 ± 0.03 | 0.03 ± 0.024 | -0.018 ± 0.076 | 0.0485 ± 0.064 | 0.07 ± 0.13 | -0.03 ± 0.079 | 0.0445 ± 0.044 |
| HDF3CGF:Collagen III | -0.0085 ± 0.0064 | 0.0005 ± 0.018 | 0.0005 ± 0.0035 | -0.008 ± 0.092 | -0.087 ± 0.12 | -0.211 ± 0.12 | -0.0055 ± 0.0064 | -0.015 ± 0.041 | -0.0705 ± 0.028 | -0.02 ± 0.047 | -0.0505 ± 0.023 | -0.0895 ± 0.015 | -0.062 ± 0.12 | -0.08 ± 0.085 | -0.025 ± 0.16 | -0.0215 ± 0.036 | -0.0135 ± 0.019 | 0.037 ± 0.027 | -0.0705 ± 0.043 | -0.168 ± 0.02 |
| BE3C:uPA | -0.002 ± 0.02 | -0.0135 ± 0.005 | -0.0005 ± 0.0021 | -0.0105 ± 0.011 | 0.0055 ± 0.013 | -0.0075 ± 0.0021 | 0.033 ± 0.027 | 0.0315 ± 0.016 | 0.0245 ± 0.012 | -0.0105 ± 0.013 | -0.011 ± 0.013 | -0.0195 ± 0.0035 | -0.0015 ± 0.022 | -0.0145 ± 0.039 | -0.004 ± 0.023 | -0.0105 ± 0.016 | 0.001 ± 0.011 | 0.002 ± 0.041 | -0.0445 ± 0.08 | -0.0195 ± 0.076 |
| KF3CT:IL-1alpha | -0.005 ± 0.013 | -0.0245 ± 0.011 | 0.004 ± 0.02 | 0.009 ± 0.018 | 0.003 ± 0.037 | 0.029 ± 0.034 | -0.001 ± 0.0071 | 0.011 ± 0.0014 | -0.0355 ± 0.044 | -0.021 ± 0.011 | -0.0345 ± 0.022 | -0.001 ± 0.031 | 0.0005 ± 0.0064 | -0.013 ± 0.025 | 0.0045 ± 0.05 | -0.0465 ± 0.05 | -0.0475 ± 0.056 | 0.0535 ± 0.025 | -0.0365 ± 0.053 | -0.105 ± 0.043 |
